The target in one assay is MET (human) (Homo sapiens, UniProt P08581). The assay can be described thus: MET kinase AlphaScreen assay (Km of ATP). The assay is classed as biochemical. Particulars: ATP at Km; at least duplicate experiments. The procedure: (§1) Person skilled in the art will appreciate that a variety of assay formats may be used to determine the activity of the compounds of this invention. For example, AlphaScreen (Amplified Luminescent Proximity Homogeneous Assay) technology was used with the kinases described below. Assay ATP concentrations for individual kinases are included in the text.
Sequence of MET (human) (P08581 25-1390): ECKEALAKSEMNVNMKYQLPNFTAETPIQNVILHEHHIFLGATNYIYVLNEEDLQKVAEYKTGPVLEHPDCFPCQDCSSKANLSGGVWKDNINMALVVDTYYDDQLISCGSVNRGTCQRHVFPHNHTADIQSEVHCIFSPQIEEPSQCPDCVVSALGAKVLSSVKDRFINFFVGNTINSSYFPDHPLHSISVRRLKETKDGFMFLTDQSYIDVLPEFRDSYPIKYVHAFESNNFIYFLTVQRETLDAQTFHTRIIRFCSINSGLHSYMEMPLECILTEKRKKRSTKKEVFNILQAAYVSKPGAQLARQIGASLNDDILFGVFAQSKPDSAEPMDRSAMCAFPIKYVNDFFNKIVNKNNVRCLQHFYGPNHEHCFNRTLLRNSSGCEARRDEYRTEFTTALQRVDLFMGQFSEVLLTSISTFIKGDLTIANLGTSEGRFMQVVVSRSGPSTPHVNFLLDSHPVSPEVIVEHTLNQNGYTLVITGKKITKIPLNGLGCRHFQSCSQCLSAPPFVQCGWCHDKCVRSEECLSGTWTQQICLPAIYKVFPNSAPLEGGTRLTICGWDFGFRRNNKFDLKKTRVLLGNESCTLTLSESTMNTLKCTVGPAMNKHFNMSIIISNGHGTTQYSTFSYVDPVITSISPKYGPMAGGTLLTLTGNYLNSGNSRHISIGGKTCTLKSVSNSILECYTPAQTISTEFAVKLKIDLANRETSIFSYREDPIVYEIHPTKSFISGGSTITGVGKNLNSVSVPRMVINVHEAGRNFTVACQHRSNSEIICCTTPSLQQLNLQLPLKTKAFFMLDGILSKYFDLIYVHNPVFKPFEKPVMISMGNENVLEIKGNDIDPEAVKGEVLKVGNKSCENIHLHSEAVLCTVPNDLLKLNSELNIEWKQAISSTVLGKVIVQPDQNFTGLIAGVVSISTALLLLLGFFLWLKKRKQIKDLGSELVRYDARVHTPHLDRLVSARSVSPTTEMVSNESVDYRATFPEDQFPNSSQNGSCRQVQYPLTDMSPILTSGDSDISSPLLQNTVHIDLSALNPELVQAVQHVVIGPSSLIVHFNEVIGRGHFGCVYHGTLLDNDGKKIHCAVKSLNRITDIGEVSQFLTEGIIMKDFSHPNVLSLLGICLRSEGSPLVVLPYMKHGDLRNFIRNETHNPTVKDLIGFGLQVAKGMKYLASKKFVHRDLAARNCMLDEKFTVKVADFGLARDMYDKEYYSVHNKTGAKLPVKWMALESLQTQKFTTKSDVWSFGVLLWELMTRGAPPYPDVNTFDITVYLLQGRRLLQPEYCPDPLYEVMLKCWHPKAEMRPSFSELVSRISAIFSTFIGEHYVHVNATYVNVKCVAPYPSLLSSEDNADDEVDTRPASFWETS
MET (human)—Km of ATP: MET assay is performed in a 384 well assay containing 200 ng/μL biotinylated poly(Glu,Tyr), 0.334 mM vanadate, desired concentration of ATP optimized for the enzyme in assay buffer (50 mM HEPES (pH=7.4), 5 mM MgCl2, 5 mM MnCl2, and 1% glycerol). Desired compound is added in a final concentration of 1% DMSO with control being vehicle of DMSO alone. MET is diluted to the optimized concentration (optimized on a lot-by-lot basis) in an enzyme diluent buffer (50 mM Tris pH=7.4, 1% glycerol, 0.03% Brij35, 0.24 mM EGTA, 1 mM DTT, and 0.003% BSA). Enzyme is added to initiate the reaction and incubated for 60 min at RT. In subdued light, appropriate amount of PT66 donor and acceptor beads (diluted 1:260 from manufacturer's provision in a 25 mM Tris HCl (pH=7.5), 400 mM NaCl, 100 mM EDTA, 0.3% BSA buffer) are added to the wells. The plates, incubated for 1 h, are read on an AlphaQuest plate reader
(In general: Alpha assays give light when donor and acceptor beads are brought close together.)

Another assay concerns the target RON (human) (Homo sapiens, UniProt Q04912). Nature of the assay: RON kinase AlphaScreen assay (Km of ATP). As to conditions: ATP at Km; at least duplicate experiments. The assay is classed as biochemical. The procedure:
as §1
RON (human)—Km of ATP: RON assay is performed in a 384 well assay containing 200 ng/μL biotinylated poly(Glu,Tyr), 0.334 mM vanadate, desired concentration of ATP optimized for the enzyme in assay buffer (50 mM HEPES (pH=7.4), 12.5 mM MgCl2 and 1% glycerol). Desired compound is added in a final concentration of 1% DMSO with control being vehicle of DMSO alone. RON is diluted to the optimized (on a lot-by-lot basis) concentration in an enzyme diluent buffer (50 mM HEPES pH=7.4, 12.5 mM MgCl2 and 1% glycerol, 0.03% Brij35, 0.3 mM EGTA, lmM DTT, and 0.003% BSA). Enzyme is added to initiate the reaction and incubated for 30 min at RT. In subdued light, appropriate amount of PT66 donor and acceptor beads (diluted 1:260 from manufacturer's provision in a 25 mM Tris HCl (pH=7.5), 200 mM NaCl, 100 mM EDTA, 0.3% BSA buffer) are added to the wells. The plates, incubated for 1 h, are read on an AlphaQuest plate reader.

Structures can show the parent of a compound that is named as a salt. A value given as a limit tells only on which side of the number the result lay.

Sequence of RON (human) (Q04912 25-1400): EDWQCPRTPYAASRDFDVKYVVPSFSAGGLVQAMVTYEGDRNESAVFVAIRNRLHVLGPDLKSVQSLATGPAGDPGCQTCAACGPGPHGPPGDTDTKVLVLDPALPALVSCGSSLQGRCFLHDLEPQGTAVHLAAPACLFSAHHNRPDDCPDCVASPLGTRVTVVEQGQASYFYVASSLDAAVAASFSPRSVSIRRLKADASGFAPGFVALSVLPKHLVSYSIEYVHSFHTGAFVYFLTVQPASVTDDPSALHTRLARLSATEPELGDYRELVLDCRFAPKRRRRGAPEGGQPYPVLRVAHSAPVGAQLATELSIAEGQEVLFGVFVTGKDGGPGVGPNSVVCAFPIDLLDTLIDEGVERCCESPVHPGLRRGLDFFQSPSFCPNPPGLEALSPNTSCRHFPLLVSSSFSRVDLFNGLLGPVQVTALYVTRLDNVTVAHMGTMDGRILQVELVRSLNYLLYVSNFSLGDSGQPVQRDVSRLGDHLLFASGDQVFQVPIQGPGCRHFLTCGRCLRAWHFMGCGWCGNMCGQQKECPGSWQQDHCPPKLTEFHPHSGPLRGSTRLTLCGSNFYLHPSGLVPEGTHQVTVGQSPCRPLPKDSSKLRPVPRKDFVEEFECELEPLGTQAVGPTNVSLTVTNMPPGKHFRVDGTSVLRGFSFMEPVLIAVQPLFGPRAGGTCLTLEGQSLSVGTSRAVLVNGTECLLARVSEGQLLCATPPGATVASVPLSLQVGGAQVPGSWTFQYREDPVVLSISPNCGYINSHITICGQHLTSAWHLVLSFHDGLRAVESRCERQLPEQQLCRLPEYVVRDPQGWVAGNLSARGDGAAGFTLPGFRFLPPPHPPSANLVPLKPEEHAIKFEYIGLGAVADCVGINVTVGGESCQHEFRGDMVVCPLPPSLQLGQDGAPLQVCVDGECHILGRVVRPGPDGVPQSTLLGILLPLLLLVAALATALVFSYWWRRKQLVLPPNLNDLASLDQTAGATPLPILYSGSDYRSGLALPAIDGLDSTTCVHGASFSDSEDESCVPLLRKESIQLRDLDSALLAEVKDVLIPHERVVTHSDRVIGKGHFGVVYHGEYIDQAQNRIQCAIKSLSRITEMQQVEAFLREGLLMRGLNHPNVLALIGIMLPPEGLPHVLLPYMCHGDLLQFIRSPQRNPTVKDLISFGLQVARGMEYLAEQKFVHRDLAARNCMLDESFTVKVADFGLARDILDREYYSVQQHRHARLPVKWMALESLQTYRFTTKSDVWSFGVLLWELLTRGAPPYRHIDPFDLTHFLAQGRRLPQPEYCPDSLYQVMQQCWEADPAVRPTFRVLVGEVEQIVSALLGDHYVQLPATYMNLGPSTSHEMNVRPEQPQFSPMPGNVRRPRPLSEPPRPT

By IC50 is commonly meant the concentration that inhibits the measured activity by half. Low values mean higher potency, high ones lower potency. For `Nc1ncc(-c2cnn([C@@H]3CNC(CO)C3)c2)cc1-c1nc2ccccc2s1` (mixture of isomers) [Example 180, {(S)-4-[4-(6-Amino-5-benzothiazol-2-ylpyridin-3-yl)-pyrazol-1-yl]-pyrrolidin-2-yl}-methanol], the IC50 at MET (human) is not above 100 nM; on RON (human), 100 to 1000 nM.
On to `Cc1nc(-c2cc(-c3cnn(C4CCNCC4)c3)cnc2N)cc2ccccc12` [Example 1, 3-(1-Methylisoquinolin-3-yl)-5-(1-piperidin-4-yl-1H-pyrazol-4-yl)-pyridin-2-ylamine trihydrochloride], for which the 50% inhibitory concentration (IC50) against MET (human) and against RON (human) was 1000 to 20000 nM throughout.
In the case of `Cc1c(-c2cc(-c3cnn(C4CCNCC4)c3)cnc2N)ncc2ccccc12` [Example 2, 3-(4-Methylisoquinolin-3-yl)-5-(1-piperidin-4-yl-1H-pyrazol-4-yl)-pyridin-2-ylamine trihydrochloride], the results for the IC50 on MET (human) and against RON (human) were 1000 to 20000 nM and more than 20000 nM, respectively.
Consider `Nc1ncc(-c2cnn(C3CCNCC3)c2)cc1-c1cc2cccc(Cl)c2cn1` [Example 3, 3-(8-Chloroisoquinolin-3-yl)-5-(1-piperidin-4-yl-1H-pyrazol-4-yl)-pyridin-2-ylamine trihydrochloride], for which the IC50 on MET (human) and at RON (human) was not above 100 nM in each case.
For `Cc1ccc2cnc(-c3cc(-c4cnn(C5CCNCC5)c4)cnc3N)cc2c1` [Example 4, 3-(6-Methylisoquinolin-3-yl)-5-(1-piperidin-4-yl-1H-pyrazol-4-yl)-pyridin-2-ylamine trihydrochloride], the half-inhibitory concentration (IC50) fell in the range of 100 to 1000 nM against MET (human) and 1000 to 20000 nM against RON (human).
The like results for `Cc1cccc2cc(-c3cc(-c4cnn(C5CCNCC5)c4)cnc3N)ncc12` [Example 5, 3-(8-Methylisoquinolin-3-yl)-5-(1-piperidin-4-yl-1H-pyrazol-4-yl)-pyridin-2-ylamine trihydrochloride] were, in that order, 100 to 1000 nM and 100 to 1000 nM.
Turning to `Cc1ccc(F)c2cnc(-c3cc(-c4cnn(C5CCNCC5)c4)cnc3N)cc12` [Example 6, 3-(8-Fluoro-5-methylisoquinolin-3-yl)-5-(1-piperidin-4-yl-1H-pyrazol-4-yl)-pyridin-2-ylamine trihydrochloride], the IC50 at MET (human) and on RON (human) was 100 to 1000 nM each time.
Regarding `Nc1ncc(-c2cnn(C3CCNCC3)c2)cc1-c1cc2c(Br)ccc(F)c2cn1` [Example 7, 3-(5-Bromo-8-fluoroisoquinolin-3-yl)-5-(1-piperidin-4-yl-1H-pyrazol-4-yl)-pyridin-2-ylamine trihydrochloride], the IC50 on MET (human) is not above 100 nM; against RON (human), 100 to 1000 nM.
Take `Nc1ncc(-c2cnn(C3CCNCC3)c2)cc1-c1ncc2ccccc2c1F` [Example 8, 3-(4-Fluoroisoquinolin-3-yl)-5-(1-piperidin-4-yl-1H-pyrazol-4-yl)-pyridin-2-ylamine trihydrochloride]: the IC50 at MET (human) and at RON (human) was 1000 to 20000 nM in each case.
With `Nc1ncc(-c2cnn(C3CCNCC3)c2)cc1-c1cc2c(Cl)ccc(Cl)c2cn1` [Example 9, 3-(5,8-Dichloroisoquinolin-3-yl)-5-(1-piperidin-4-yl-1H-pyrazol-4-yl)-pyridin-2-ylamine trihydrochloride], the IC50 is not above 100 nM against MET (human) and 100 to 1000 nM against RON (human).
For the compound `Nc1ncc(-c2cnn(C3CCNCC3)c2)cc1-c1cc2c(F)ccc(F)c2cn1` [Example 10, 3-(5,8-Difluoroisoquinolin-3-yl)-5-(1-piperidin-4-yl-1H-pyrazol-4-yl)-pyridin-2-ylamine trihydrochloride], the IC50 against MET (human) lay within 100 to 1000 nM; at RON (human) it was 1000 to 20000 nM.
For the compound `Nc1ncc(-c2cnn(C3CCNCC3)c2)cc1-c1cc2c(Cl)ccc(F)c2cn1` [Example 11, 3-(5-Chloro-8-fluoroisoquinolin-3-yl)-5-(1-piperidin-4-yl-1H-pyrazol-4-yl)-pyridin-2-ylamine trihydrochloride], the IC50 was not above 100 nM against MET (human) and 100 to 1000 nM on RON (human).
For the compound `COc1ccc(Cl)c2cc(-c3cc(-c4cnn(C5CCNCC5)c4)cnc3N)ncc12` [Example 12, 4-{4-[6-Amino-5-(5-chloro-8-methoxyisoquinolin-3-yl)-pyridin-3-yl]-pyrazol-1-yl}-piperidine trihydrochloride], the 50% inhibitory concentration (IC50) against MET (human) lay in the range of 100 to 1000 nM; against RON (human), 1000 to 20000 nM.
With `Nc1ncc(-c2cnn(C3CCNCC3)c2)cc1-c1cc2ccccc2cn1` [Example 13, 3-Isoquinolin-3-yl-5-(1-piperidin-4-yl-1H-pyrazol-4-yl)-pyridin-2-ylamine trihydrochloride], the IC50 lay within 100 to 1000 nM on MET (human) and 1000 to 20000 nM at RON (human).
In the same order, the values of `Nc1ncc(-c2cnn(C3CCNCC3)c2)cc1-c1cc2ccc(OC(F)(F)F)cc2cn1` [Example 14, 5-(1-Piperidin-4-yl-1H-pyrazol-4-yl)-3-(7-trifluoromethoxy-isoquinolin-3-yl)-pyridin-2-ylamine trihydrochloride] are 1000 to 20000 nM and 1000 to 20000 nM.
The like results for `Nc1ncc(-c2cnn(C3CCNCC3)c2)cc1-c1cc2c(Cl)c(F)cc(F)c2cn1` [Example 15, 3-(5-Chloro-6,8-difluoroisoquinolin-3-yl)-5-(1-piperidin-4-yl-1H-pyrazol-4-yl)-pyridin-2-ylamine trihydrochloride salt] were, in that order, not above 100 nM and 100 to 1000 nM.
Turning to `Nc1ncc(-c2cnn(C3CCNCC3)c2)cc1-c1cc2cc(C(F)(F)F)ccc2cn1` [Example 16, 5-(1-Piperidin-4-yl-1H-pyrazol-4-yl)-3-(6-trifluoromethylisoquinolin-3-yl)-pyridin-2-ylamine trihydrochloride salt], the IC50 on MET (human) and against RON (human) was 100 to 1000 nM each time.
For `Nc1ncc(-c2cnn(C3CCNCC3)c2)cc1-c1cc2ccc(C(F)(F)F)cc2cn1` [Example 17, 5-(1-Piperidin-4-yl-1H-pyrazol-4-yl)-3-(7-trifluoromethylisoquinolin-3-yl)-pyridin-2-ylamine tri-hydrochloride salt], the IC50 at MET (human) and on RON (human) was 100 to 1000 nM throughout.
As to `Nc1ncc(-c2cnn(C3CCNCC3)c2)cc1-c1cc2c(C(F)(F)F)cccc2cn1` [Example 18, 5-(1-Piperidin-4-yl-1H-pyrazol-4-yl)-3-(5-trifluoromethylisoquinolin-3-yl)-pyridin-2-ylamine trihydrochloride salt], the IC50 on MET (human) and at RON (human) was 100 to 1000 nM in each case.
As for `Nc1ncc(-c2cnn(C3CCNCC3)c2)cc1-c1cc2cccc(C(F)(F)F)c2cn1` [Example 19, 5-(1-Piperidin-4-yl-1H-pyrazol-4-yl)-3-(8-trifluoromethylisoquinolin-3-yl)-pyridin-2-ylamine trihydrochloride salt], the half-inhibitory concentration (IC50) against MET (human) and against RON (human) was 100 to 1000 nM in each case.
Consider `Cc1ccc(C)c2cc(-c3cc(-c4cnn(C5CCNCC5)c4)cnc3N)ncc12` [Example 20, 3-(5,8-Dimethylisoquinolin-3-yl)-5-(1-piperidin-4-yl-1H-pyrazol-4-yl)-pyridin-2-ylamine trihydrochloride salt], for which the IC50 against MET (human) and at RON (human) was 100 to 1000 nM throughout.
As for `Nc1ncc(-c2cnn(C3CCNCC3)c2)cc1-c1cc2ccc(Br)cc2cn1` [Example 21, 3-(7-Bromoisoquinolin-3-yl)-5-(1-piperidin-4-yl-1H-pyrazol-4-yl)-pyridin-2-ylamine trihydrochloride salt], the half-maximal inhibitory concentration (IC50) at MET (human) lay in the range of 100 to 1000 nM; against RON (human), 1000 to 20000 nM.
